Measured values taken from ChEMBL document CHEMBL1201862, “PubChem BioAssay data set” (2004).
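All cell lines were grown in 96-well plates and treated with compound for 48 hours. GI50 is the concentration that inhibits growth by half.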 Calls of active or inactive are those of the source. Rule as the data show it: active = GI50 up to about 1.1 µM and inactive = higher.

Tests used:
Assay in all cases: NCI-60 cell line screen, 48 h
786-0 = test system: 786-0
ACHN = test system: ACHN
CAKI-1 = test system: CAKI-1
CCRF-CEM = test system: CCRF-CEM
HCT-116 = test system: HCT-116
HCT-15 = test system: HCT-15
LOX IMVI = test system: LOX IMVI
NCI-H23 = test system: NCI-H23
NCI-H522 = test system: NCI-H522
OVCAR-8 = test system: OVCAR-8
SF-539 = test system: SF-539
SK-MEL-5 = test system: SK-MEL-5
SN12C = test system: SN12C
SNB-19 = test system: SNB-19
SR = test system: SR
Malme-3M = test system: Malme-3M
NCI-H226 = test system: NCI-H226
SK-OV-3 = test system: SK-OV-3
NCI-H460 = test system: NCI-H460
U-251 = test system: U-251

SMILES	GI50 (786-0)	GI50 (ACHN)	GI50 (CAKI-1)	GI50 (CCRF-CEM)	GI50 (HCT-116)	GI50 (HCT-15) [µM]	GI50 (LOX IMVI)	GI50 (NCI-H23)	GI50 (NCI-H522)	GI50 (OVCAR-8)	GI50 (SF-539)	GI50 (SK-MEL-5)	GI50 (SN12C)	GI50 (SNB-19)	GI50 (SR)	GI50 (Malme-3M)	GI50 (NCI-H226)	GI50 (SK-OV-3)	GI50 (NCI-H460)	GI50 (U-251)
CC1C(c2ccc(F)cc2)c2cc3c(cc2OC1N1CCCC1)OCO3 (stereo unspecified)	45.1 µM (inactive)	27.7 µM (inactive)	16.7 µM (inactive)	30.8 µM (inactive)	30.6 µM (inactive)	34.4	83.8 µM (inactive)	64.9 µM (inactive)	29 µM (inactive)	55.1 µM (inactive)	30.4 µM (inactive)	37.7 µM (inactive)	80.4 µM (inactive)	29.1 µM (inactive)	35.2 µM (inactive)					
N#CCCc1nc2ccc(Br)cc2c(=O)n1CCO	> 100 µM (inactive)		> 100 µM (inactive)	> 100 µM (inactive)		> 100	> 100 µM (inactive)	> 100 µM (inactive)	> 100 µM (inactive)	> 100 µM (inactive)	> 100 µM (inactive)	> 100 µM (inactive)	> 100 µM (inactive)			> 100 µM (inactive)	> 100 µM (inactive)	> 100 µM (inactive)		
O=C(CN(Cc1ccccc1)Cc1ccccc1)N1CCc2c([nH]c3ccccc23)C1c1cccnc1 (stereo unspecified)	5.87 µM (inactive)	7.64 µM (inactive)	4.85 µM (inactive)	4.11 µM (inactive)	3.74 µM (inactive)	5.64	7.73 µM (inactive)	5.41 µM (inactive)	4.8 µM (inactive)	6.1 µM (inactive)	12.2 µM (inactive)	7.23 µM (inactive)	2.71 µM (inactive)	19.5 µM (inactive)	5.28 µM (inactive)			80.9 µM (inactive)	5.58 µM (inactive)	6.37 µM (inactive)
CC(Oc1ccc(OCC2CCCCC2)cc1)C(=O)OCC(=O)c1ccc(-c2ccccc2)cc1 (stereo unspecified)	> 100 µM (inactive)	> 100 µM (inactive)		> 100 µM (inactive)	> 100 µM (inactive)	> 100	> 100 µM (inactive)	> 100 µM (inactive)	> 100 µM (inactive)	> 100 µM (inactive)	> 100 µM (inactive)	> 100 µM (inactive)	> 100 µM (inactive)	> 100 µM (inactive)		> 100 µM (inactive)	> 100 µM (inactive)	> 100 µM (inactive)	> 100 µM (inactive)	> 100 µM (inactive)
O=C1CC(c2cccc(F)c2)Nc2cc3c(cc21)OCO3 (stereo unspecified)	0.0468 µM (active)	0.0649 µM (active)	0.051 µM (active)	0.033 µM (active)	0.0533 µM (active)	0.0394	0.0631 µM (active)	0.0335 µM (active)	0.0208 µM (active)	0.0568 µM (active)	0.0293 µM (active)	0.0224 µM (active)	0.0509 µM (active)	0.0365 µM (active)		0.0327 µM (active)	0.027 µM (active)	0.0955 µM (active)	0.0418 µM (active)	0.0344 µM (active)
Fc1cc(-c2ncc(Cl)cc2Cl)c2cccccc1-2	> 100 µM (inactive)	> 100 µM (inactive)	> 100 µM (inactive)		> 100 µM (inactive)	> 100	> 100 µM (inactive)	> 100 µM (inactive)	> 100 µM (inactive)	> 100 µM (inactive)	> 100 µM (inactive)	> 100 µM (inactive)		> 100 µM (inactive)		> 100 µM (inactive)	> 100 µM (inactive)	> 100 µM (inactive)	> 100 µM (inactive)	
CC1=C(C(=O)NCc2ccccc2)C(c2ccc([N+](=O)[O-])cc2)C(C(=O)NCc2ccccc2)=C(C)N1	44.2 µM (inactive)	27.4 µM (inactive)	26.7 µM (inactive)		21.9 µM (inactive)	45.4	18.2 µM (inactive)	39.7 µM (inactive)	28.5 µM (inactive)	39.8 µM (inactive)	66.4 µM (inactive)	38.5 µM (inactive)	76 µM (inactive)	65.2 µM (inactive)		67.5 µM (inactive)	31.8 µM (inactive)		35.1 µM (inactive)	40.3 µM (inactive)
CCOC(=O)CCC(NC(=O)c1ccc(NC(OC)c2nc3cc(C(F)(F)F)ccc3nc2-c2ccccc2)cc1)C(=O)OCC (stereo unspecified)	12.7 µM (inactive)	16.1 µM (inactive)	17.1 µM (inactive)	2.51 µM (inactive)	2.92 µM (inactive)	14.3	10.4 µM (inactive)	16 µM (inactive)	12.3 µM (inactive)	10.3 µM (inactive)	13.2 µM (inactive)	16.3 µM (inactive)	14.5 µM (inactive)	14.4 µM (inactive)		17 µM (inactive)	18.6 µM (inactive)	18.1 µM (inactive)	12.7 µM (inactive)	15.6 µM (inactive)
